# Laboratory results taken from patent publication US20230365592A1 (Agios Pharmaceuticals, Inc., priority 2022, published 2023).
# Target: T1, human PAH with the R408W mutation (Homo sapiens, UniProt P00439, R408W)
# T1 construct: expressed in transfected cells
# T1 sequence (P00439 1-452 R408W): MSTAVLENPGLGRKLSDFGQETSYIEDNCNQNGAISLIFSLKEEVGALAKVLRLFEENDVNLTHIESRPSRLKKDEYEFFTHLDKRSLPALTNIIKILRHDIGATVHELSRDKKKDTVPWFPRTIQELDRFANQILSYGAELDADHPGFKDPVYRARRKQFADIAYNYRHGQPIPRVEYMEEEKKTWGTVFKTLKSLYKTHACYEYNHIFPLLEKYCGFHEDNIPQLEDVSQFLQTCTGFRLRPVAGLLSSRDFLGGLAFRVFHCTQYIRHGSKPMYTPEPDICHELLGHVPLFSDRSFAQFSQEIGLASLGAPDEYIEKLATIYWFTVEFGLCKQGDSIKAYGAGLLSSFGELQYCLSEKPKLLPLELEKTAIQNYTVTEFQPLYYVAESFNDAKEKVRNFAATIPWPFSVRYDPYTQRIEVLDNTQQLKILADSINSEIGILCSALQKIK
# Assay: Cell Based Phenylalanine Flux Assay;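 also: after compound treatment, cells received sepiapterin plus isotope-labelled Phenylalanine for 4 hours, then labelled Tyrosine in the medium was quantified, 10-point 2-fold dilution series run in duplicate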
# Conditions: A375 cells expressing human R408W PAH; 24 hrs compound incubation; 13C-Tyrosine by LC-MS; average where tested multiple times; read-out: AC50
row,AC50 [µM],SMILES
1,> 5,"CC(C)(O)c1nc(Br)c(C(=O)N2CCc3[nH]cnc3[C@@H]2c2cc3c(F)cccn3n2)o1 [Example 747, (R)-(4-bromo-2-(2-hydroxypropan-2-yl)oxazol-5-yl)(4-(4-fluoropyrazolo[1,5-a]pyridin-2-yl)-6,7-dihydro-1H-imidazo[4,5-c]pyridin-5(4H)-yl)methanone]"
2,< 0.5,"Cc1cccn2nc([C@@H]3c4nc[nH]c4CCN3C(=O)c3nnc(-c4cnn(C)c4)o3)cc12 [Example 748, (S)-(5-(1-methyl-1H-pyrazol-4-yl)-1,3,4-oxadiazol-2-yl)(4-(4-methylpyrazolo[1,5-a]pyridin-2-yl)-6,7-dihydro-1H-imidazo[4,5-c]pyridin-5(4H)-yl)methanone]"
3,> 5,"Cc1cccn2nc([C@H]3c4nc[nH]c4CCN3C(=O)c3nnc(-c4cnn(C)c4)o3)cc12 [Example 749, (R)-(5-(1-methyl-1H-pyrazol-4-yl)-1,3,4-oxadiazol-2-yl)(4-(4-methylpyrazolo[1,5-a]pyridin-2-yl)-6,7-dihydro-1H-imidazo[4,5-c]pyridin-5(4H)-yl)methanone]"
4,< 0.5,"Cc1nc([C@H](C)O)oc1C(=O)N1CCc2[nH]cnc2[C@H]1c1cc2c(C)cccn2n1 [Example 750, (2-((S)-1-hydroxyethyl)-4-methyloxazol-5-yl)((S)-4-(4-methylpyrazolo[1,5-a]pyridin-2-yl)-6,7-dihydro-1H-imidazo[4,5-c]pyridin-5(4H)-yl)methanone]"
5,< 0.5,"Cc1nc([C@@H](C)O)oc1C(=O)N1CCc2[nH]cnc2[C@H]1c1cc2c(C)cccn2n1 [Example 752, (2-((R)-1-hydroxyethyl)-4-methyloxazol-5-yl)((S)-4-(4-methylpyrazolo[1,5-a]pyridin-2-yl)-6,7-dihydro-1H-imidazo[4,5-c]pyridin-5(4H)-yl)methanone]"
6,1 to 5,"Cc1nc([C@@H](C)O)oc1C(=O)N1CCc2[nH]cnc2[C@@H]1c1cc2c(C)cccn2n1 [Example 753, (2-((R)-1-hydroxyethyl)-4-methyloxazol-5-yl)((R)-4-(4-methylpyrazolo[1,5-a]pyridin-2-yl)-6,7-dihydro-1H-imidazo[4,5-c]pyridin-5(4H)-yl)methanone]"
7,< 0.5,"Cc1nc(C(C)(C)O)oc1C(=O)N1CCc2[nH]cnc2[C@H]1c1cc2c(C)cccn2n1 [Example 754, (S)-(2-(2-hydroxypropan-2-yl)-4-methyloxazol-5-yl)(4-(4-methylpyrazolo[1,5-a]pyridin-2-yl)-6,7-dihydro-1H-imidazo[4,5-c]pyridin-5(4H)-yl)methanone]"
8,< 0.5,"CC(C)(O)c1nc(Cl)c(C(=O)N2CCc3[nH]cnc3[C@H]2c2cc3c(F)cccn3n2)o1 [Example 756, (S)-(4-chloro-2-(2-hydroxypropan-2-yl)oxazol-5-yl)(4-(4-fluoropyrazolo[1,5-a]pyridin-2-yl)-6,7-dihydro-1H-imidazo[4,5-c]pyridin-5(4H)-yl)methanone]"
9,1 to 5,"CC(C)(O)c1nc(Cl)c(C(=O)N2CCc3[nH]cnc3[C@@H]2c2cc3c(F)cccn3n2)o1 [Example 757, (R)-(4-chloro-2-(2-hydroxypropan-2-yl)oxazol-5-yl)(4-(4-fluoropyrazolo[1,5-a]pyridin-2-yl)-6,7-dihydro-1H-imidazo[4,5-c]pyridin-5(4H)-yl)methanone]"
10,< 0.5,"O=C(c1ocnc1C(F)F)N1CCc2[nH]cnc2[C@H]1c1cc2c(F)cccn2n1 [Example 758, (S)-(4-(difluoromethyl)oxazol-5-yl)(4-(4-fluoropyrazolo[1,5-a]pyridin-2-yl)-6,7-dihydro-1H-imidazo[4,5-c]pyridin-5(4H)-yl)methanone]"
11,1 to 5,"O=C(c1ocnc1C(F)F)N1CCc2[nH]cnc2[C@@H]1c1cc2c(F)cccn2n1 [Example 759, (R)-(4-(difluoromethyl)oxazol-5-yl)(4-(4-fluoropyrazolo[1,5-a]pyridin-2-yl)-6,7-dihydro-1H-imidazo[4,5-c]pyridin-5(4H)-yl)methanone]"
12,1 to 5,"O=C(c1cnco1)N1CCc2[nH]cnc2[C@H]1c1cc2c(F)cccn2n1 [Example 760, (S)-(4-(4-fluoropyrazolo[1,5-a]pyridin-2-yl)-6,7-dihydro-1H-imidazo[4,5-c]pyridin-5(4H)-yl)(oxazol-5-yl)methanone]"
13,1 to 5,"O=C(c1cnco1)N1CCc2[nH]cnc2[C@@H]1c1cc2c(F)cccn2n1 [Example 761, (R)-(4-(4-fluoropyrazolo[1,5-a]pyridin-2-yl)-6,7-dihydro-1H-imidazo[4,5-c]pyridin-5(4H)-yl)(oxazol-5-yl)methanone]"
14,< 0.5,"Cn1nc(Cl)nc1C(=O)N1CCc2[nH]cnc2[C@H]1c1cc2c(F)cccn2n1 [Example 762, (S)-(3-chloro-1-methyl-1H-1,2,4-triazol-5-yl)(4-(4-fluoropyrazolo[1,5-a]pyridin-2-yl)-6,7-dihydro-1H-imidazo[4,5-c]pyridin-5(4H)-yl)methanone]"
15,1 to 5,"Cn1nc(Cl)nc1C(=O)N1CCc2[nH]cnc2[C@@H]1c1cc2c(F)cccn2n1 [Example 763, (R)-(3-chloro-1-methyl-1H-1,2,4-triazol-5-yl)(4-(4-fluoropyrazolo[1,5-a]pyridin-2-yl)-6,7-dihydro-1H-imidazo[4,5-c]pyridin-5(4H)-yl)methanone]"
16,0.5 to 1,"Cn1nc(C(F)F)nc1C(=O)N1CCc2[nH]cnc2[C@H]1c1cc2c(F)cccn2n1 [Example 764, (S)-(3-(difluoromethyl)-1-methyl-1H-1,2,4-triazol-5-yl)(4-(4-fluoropyrazolo[1,5-a]pyridin-2-yl)-6,7-dihydro-1H-imidazo[4,5-c]pyridin-5(4H)-yl)methanone]"
17,1 to 5,"Cn1nc(C(F)F)nc1C(=O)N1CCc2[nH]cnc2[C@@H]1c1cc2c(F)cccn2n1 [Example 765, (R)-(3-(difluoromethyl)-1-methyl-1H-1,2,4-triazol-5-yl)(4-(4-fluoropyrazolo[1,5-a]pyridin-2-yl)-6,7-dihydro-1H-imidazo[4,5-c]pyridin-5(4H)-yl)methanone]"
18,< 0.5,"O=C(c1cnco1)N1CCc2[nH]cnc2[C@H]1c1cc2c(Cl)cccn2n1 [Example 766, (S)-(4-(4-chloropyrazolo[1,5-a]pyridin-2-yl)-6,7-dihydro-1H-imidazo[4,5-c]pyridin-5(4H)-yl)(oxazol-5-yl)methanone]"
19,> 5,"O=C(c1cnco1)N1CCc2[nH]cnc2[C@@H]1c1cc2c(Cl)cccn2n1 [Example 767, (R)-(4-(4-chloropyrazolo[1,5-a]pyridin-2-yl)-6,7-dihydro-1H-imidazo[4,5-c]pyridin-5(4H)-yl)(oxazol-5-yl)methanone]"
20,< 0.5,"Cc1cccn2nc([C@@H]3c4nc[nH]c4CCN3C(=O)c3cnco3)cc12 [Example 768, (S)-(4-(4-methylpyrazolo[1,5-a]pyridin-2-yl)-6,7-dihydro-1H-imidazo[4,5-c]pyridin-5(4H)-yl)(oxazol-5-yl)methanone]"
21,< 0.5,"Cc1ncoc1C(=O)N1CCc2[nH]cnc2[C@H]1c1cc2c(C)cccn2n1 [Example 770, (S)-(4-methyloxazol-5-yl)(4-(4-methylpyrazolo[1,5-a]pyridin-2-yl)-6,7-dihydro-1H-imidazo[4,5-c]pyridin-5(4H)-yl)methanone]"
22,1 to 5,"Cc1ncoc1C(=O)N1CCc2[nH]cnc2[C@@H]1c1cc2c(C)cccn2n1 [Example 771, (R)-(4-methyloxazol-5-yl)(4-(4-methylpyrazolo[1,5-a]pyridin-2-yl)-6,7-dihydro-1H-imidazo[4,5-c]pyridin-5(4H)-yl)methanone]"
23,< 0.5,"O=C(c1ocnc1C(F)(F)F)N1CCc2[nH]cnc2[C@H]1c1cc2c(F)cccn2n1 [Example 772, (S)-(4-(4-fluoropyrazolo[1,5-a]pyridin-2-yl)-6,7-dihydro-1H-imidazo[4,5-c]pyridin-5(4H)-yl)(4-(trifluoromethyl)oxazol-5-yl)methanone]"
24,0.5 to 1,"O=C(c1ocnc1C(F)(F)F)N1CCc2[nH]cnc2[C@@H]1c1cc2c(F)cccn2n1 [Example 773, (R)-(4-(4-fluoropyrazolo[1,5-a]pyridin-2-yl)-6,7-dihydro-1H-imidazo[4,5-c]pyridin-5(4H)-yl)(4-(trifluoromethyl)oxazol-5-yl)methanone]"
25,< 0.5,"Cc1ncoc1C(=O)N1CCc2[nH]cnc2[C@H]1c1cc2c(F)cccn2n1 [Example 774, (S)-(4-(4-fluoropyrazolo[1,5-a]pyridin-2-yl)-6,7-dihydro-1H-imidazo[4,5-c]pyridin-5(4H)-yl)(4-methyloxazol-5-yl)methanone]"
26,> 5,"Cc1ncoc1C(=O)N1CCc2[nH]cnc2[C@@H]1c1cc2c(F)cccn2n1 [Example 775, (R)-(4-(4-fluoropyrazolo[1,5-a]pyridin-2-yl)-6,7-dihydro-1H-imidazo[4,5-c]pyridin-5(4H)-yl)(4-methyloxazol-5-yl)methanone]"
27,< 0.5,"O=C(c1ccnn1C(F)F)N1CCc2[nH]cnc2[C@H]1c1cc2c(F)cccn2n1 [Example 776, (S)-(1-(difluoromethyl)-1H-pyrazol-5-yl)(4-(4-fluoropyrazolo[1,5-a]pyridin-2-yl)-6,7-dihydro-1H-imidazo[4,5-c]pyridin-5(4H)-yl)methanone]"
28,> 5,"O=C(c1ccnn1C(F)F)N1CCc2[nH]cnc2[C@@H]1c1cc2c(F)cccn2n1 [Example 777, (R)-(1-(difluoromethyl)-1H-pyrazol-5-yl)(4-(4-fluoropyrazolo[1,5-a]pyridin-2-yl)-6,7-dihydro-1H-imidazo[4,5-c]pyridin-5(4H)-yl)methanone]"
